These results are taken from patent publication US8828401B2, “Cytotoxic peptides and antibody drug conjugates thereof” (Pfizer Inc., priority 2011, dated 2014).

Experiment in all cases: In vitro cell assay, MTS cell viability 96 hours after treatment
Holding throughout (type): cell-based

Assay [1] relates to MDA-MB-361-DYT2 (breast cancer). Particulars: read-out: MDA-MB-361-DYT2 GMEAN IC50, MDA-MB-361-DYT2 cells; geometric mean; cytotoxic peptides. Put shortly: (§1)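 Cells are exposed to 3-fold dilution series (10 points, duplicate wells) of ADC or free compound lacking antibody. After 96 hours, an MTS assay quantifies viability relative to untreated cells.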
Assay [2] deals with N87 (gastric cancer). As to conditions: read-out: N87 GMEAN IC50, N87 cells; geometric mean; cytotoxic peptides. Summed up:
as §1

In assay [3] the test system is BT474 (breast cancer). Particulars: Homo sapiens, BT-474, BT474 cells; geometric mean; cytotoxic peptides; read-out: BT474 GMEAN IC50. Summed up: as §1

Starred links: 1 amine or outer side, 2 acyl side, 3 side chain; linkers in the order of their positions; H or OH if unused. Non-standard residues stand in square brackets, D forms with d. Residues, ends and D or L forms follow the SMILES beside them. *: point of attachment. Dolaproine = CO[C@@H]([C@@H]1CCCN1)[C@@H](C)C(=O)O; Dil = CC[C@H](C)[C@H](NC)[C@@H](CC(=O)O)OC; X7 = C[C@@]1(C(=O)[*:2])CCCCN1[*:1]; NMeαMePro = CN1CCC[C@@]1(C)C(=O)*; dαMePip = C[C@]1(C(=O)O)CCCCN1; Ac4c(3-oxa) = NC1(C(=O)O)COC1; NHPhenethyl = c1ccc(CCN*)cc1; αMeV = CC(C)[C@](C)(N)C(=O)O; αMeP = C[C@@]1(C(=O)O)CCCN1; NMeAib = CNC(C)(C)C(=O)O; Aib = CC(C)(N)C(=O)O; OtBu = CC(C)(C)O* Where only a bound is given, the exact number is not on record here.

As for `CC[C@H](C)[C@@H]([C@@H](CC(=O)N1CCC[C@H]1[C@H](OC)[C@@H](C)C(=O)NCCc1ccccc1)OC)N(C)C(=O)[C@@H](NC(=O)C1(N)COC1)C(C)C` [#75, N^2-[(3-aminooxetan-3-yl)carbonyl]-N-{(3R,4S,5S)-3-methoxy-1-[(2S)-2-{(1R,2R)-1-methoxy-2-methyl-3-oxo-3-[(2-phenylethyl)amino]propyl}pyrrolidin-1-yl]-5-methyl-1-oxoheptan-4-yl}-N-methyl-L-valinamide] (H-[Ac4c(3-oxa)]V[Dil][Dolaproine]-NHPhenethyl), the IC50 in assay [1], in assay [2] and in assay [3] was above 100 nM each time.
For `CC[C@H](C)[C@@H]([C@@H](CC(=O)N1CCC[C@H]1[C@H](OC)[C@@H](C)C(=S)N[C@@H](Cc1ccccc1)C(=O)OC)OC)N(C)C(=O)[C@@H](NC(=O)C(C)(C)NC)C(C)C` [#79, N,2-dimethylalanyl-N-[(3R,4S,5S)-3-methoxy-1-{(2S)-2-[(1R,2R)-1-methoxy-3-{[(2S)-1-methoxy-1-oxo-3-phenylpropan-2-yl]amino}-2-methyl-3-thioxopropyl]pyrrolidin-1-yl}-5-methyl-1-oxoheptan-4-yl]-N-methyl-L-valinamide], the IC50 in assay [1] worked out at 0.129 nM; in assay [2], 0.137 nM; in assay [3] it was 0.079 nM.
In the same order, the values of `CC[C@H](C)[C@@H]([C@@H](CC(=O)N1CCC[C@H]1[C@H](OC)[C@@H](C)C(=S)N[C@@H](Cc1ccccc1)C(=O)O)OC)N(C)C(=O)[C@@H](NC(=O)C(C)(C)NC)C(C)C` [#80, N,2-dimethylalanyl-N-[(3R,4S,5S)-1-{(2S)-2-[(1R,2R)-3-{[(1S)-1-carboxy-2-phenylethyl]amino}-1-methoxy-2-methyl-3-thioxopropyl]pyrrolidin-1-yl}-3-methoxy-5-methyl-1-oxoheptan-4-yl]-N-methyl-L-valinamide] are 32.8 nM, 28.2 nM and 20.3 nM.
As to `CC[C@H](C)[C@@H]([C@@H](CC(=O)N1CCC[C@H]1[C@H](OC)[C@@H](C)C(=S)N[C@@H](Cc1ccccc1)c1nccs1)OC)N(C)C(=O)[C@@H](NC(=O)C(C)(C)NC)C(C)C` [#84, N,2-dimethylalanyl-N-[(3R,4S,5S)-3-methoxy-1-{(2S)-2-[(1R,2R)-1-methoxy-2-methyl-3-{[(1S)-2-phenyl-1-(1,3-thiazol-2-yl)ethyl]amino}-3-thioxopropyl]pyrrolidin-1-yl}-5-methyl-1-oxoheptan-4-yl]-N-methyl-L-valinamide], the IC50 in assay [1] came to 0.686 nM; in assay [2] it was 0.426 nM; in assay [3], 0.246 nM.
With `CC[C@H](C)[C@@H]([C@@H](CC(=O)N1CCC[C@H]1[C@H](OC)[C@@H](C)C(=O)N[C@@H](Cc1ccccc1)C(=O)O)OC)N(C)C(=O)[C@@H](NC(=O)C(C)(C)NC)C(C)C` [#115, N,2-dimethylalanyl-N-{(1S,2R)-4-{(2S)-2-[(1R,2R)-3-{[(1S)-1-carboxy-2-phenylethyl]amino}-1-methoxy-2-methyl-3-oxopropyl]pyrrolidin-1-yl}-2-methoxy-1-[(1S)-1-methylpropyl]-4-oxobutyl}-N-methyl-L-valinamide] (H-[NMeAib]V[Dil][Dolaproine]F-OH), the IC50 was 19.9 nM in assay [1], 50.3 nM in assay [2] and 31.5 nM in assay [3].
For `CC[C@H](C)[C@@H]([C@@H](CC(=O)N1CCC[C@H]1[C@H](OC)[C@@H](C)C(=O)N[C@@H](Cc1ccccc1)C(=O)O)OC)N(C)C(=O)[C@@H](NC(=O)[C@]1(C)CCCN1)C(C)C` [#118, 2-methyl-L-prolyl-N-[(3R,4S,5S)-1-{(2S)-2-[(1R,2R)-3-{[(1S)-1-carboxy-2-phenylethyl]amino}-1-methoxy-2-methyl-3-oxopropyl]pyrrolidin-1-yl}-3-methoxy-5-methyl-1-oxoheptan-4-yl]-N-methyl-L-valinamide] (H-[αMeP]V[Dil][Dolaproine]F-OH), in that order: at least 100 nM, at least 100 nM and at least 100 nM.
`CC[C@H](C)[C@@H]([C@@H](CC(=O)N1CCC[C@H]1[C@H](OC)[C@@H](C)C(=O)N[C@@H](Cc1ccccc1)C(=O)OC(C)(C)C)OC)N(C)C(=O)[C@@H](NC(=O)C(C)(C)N)C(C)C` [#123, 2-methylalanyl-N-[(3R,4S,5S)-1-{(2S)-2-[(1R,2R)-3-{[(2S)-1-tert-butoxy-1-oxo-3-phenylpropan-2-yl]amino}-1-methoxy-2-methyl-3-oxopropyl]pyrrolidin-1-yl}-3-methoxy-5-methyl-1-oxoheptan-4-yl]-N-methyl-L-valinamide] (H-[Aib]V[Dil][Dolaproine]F-OtBu): the figures for the IC50 in assay [1], in assay [2] and in assay [3] were 0.129 nM, 0.089 nM and 0.125 nM, respectively.
On to `CC[C@H](C)[C@@H]([C@@H](CC(=O)N1CCC[C@H]1[C@H](OC)[C@@H](C)C(=O)N[C@@H](Cc1ccccc1)C(=O)OC)OC)N(C)C(=O)[C@@H](NC(=O)[C@@](C)(N)C(C)C)C(C)C` [#147, 3-methyl-L-isovalyl-N-{(1S,2R)-4-{(2S)-2-[(1R,2R)-3-{[(1S)-1-benzyl-2-methoxy-2-oxoethyl]amino}-1-methoxy-2-methyl-3-oxopropyl]pyrrolidin-1-yl}-2-methoxy-1-[(1S)-1-methylpropyl]-4-oxobutyl}-N-methyl-L-valinamide] (H-[αMeV]V[Dil][Dolaproine]F-OMe), for which the IC50 in assay [1] was 0.421 nM; in assay [2], 0.144 nM; in assay [3], 0.456 nM.
In the same order, the values of `CC[C@H](C)[C@@H]([C@@H](CC(=O)N1CCC[C@H]1[C@H](OC)[C@@H](C)C(=O)N[C@@H](Cc1ccccc1)C(=O)O)OC)N(C)C(=O)[C@@H](NC(=O)[C@]1(C)CCCN1C)C(C)C` [#151, 1,2-dimethyl-L-prolyl-N-{(1S,2R)-4-{(2S)-2-[(1R,2R)-3-{[(1S)-1-carboxy-2-phenylethyl]amino}-1-methoxy-2-methyl-3-oxopropyl]pyrrolidin-1-yl}-2-methoxy-1-[(1S)-1-methylpropyl]-4-oxobutyl}-N-methyl-L-valinamide] (NMeαMePro-V[Dil][Dolaproine]F-OH) are 84.6 nM, 62 nM and 84.9 nM.
As to `CC[C@H](C)[C@@H]([C@@H](CC(=O)N1CCC[C@H]1[C@H](OC)[C@@H](C)C(=O)N[C@@H](Cc1ccccc1)c1nccs1)OC)N(C)C(=O)[C@@H](NC(=O)C(C)(C)CNC)C(C)C` [#154, N˜2˜-[2,2-dimethyl-3-(methylamino)propanoyl]-N-{(1S,2R)-2-methoxy-4-{(2S)-2-[(1R,2R)-1-methoxy-2-methyl-3-oxo-3-{[(1S)-2-phenyl-1-(1,3-thiazol-2-yl)ethyl]amino}propyl]pyrrolidin-1-yl}-1-[(1S)-1-methylpropyl]-4-oxobutyl}-N-methyl-L-valinamide], the values for the IC50 in assay [1], in assay [2] and in assay [3] were 0.198 nM, 0.572 nM and 0.193 nM, respectively.
In the case of `CC[C@H](C)[C@@H]([C@@H](CC(=O)N1CCC[C@H]1[C@H](OC)[C@@H](C)C(=O)N[C@@H](Cc1ccccc1)C(=O)OC)OC)N(C)C(=O)[C@@H](NC(=O)C(C)(C)CNC)C(C)C` [#155, methyl N-{(2R,3R)-3-[(2S)-1-{(3R,4S,5S)-4-[{N-[2,2-dimethyl-3-(methylamino)propanoyl]-L-valyl}(methyl)amino]-3-methoxy-5-methylheptanoyl}pyrrolidin-2-yl]-3-methoxy-2-methylpropanoyl}-L-phenylalaninate], the IC50 in assay [1] was determined as 0.318 nM; in assay [2] it was 0.875 nM; in assay [3], 0.323 nM.
On to `CC[C@H](C)[C@@H]([C@@H](CC(=O)N1CCC[C@H]1[C@H](OC)[C@@H](C)C(=O)N[C@@H](Cc1ccccc1)C(=O)O)OC)N(C)C(=O)[C@@H](NC(=O)[C@]1(C)CCCCN1)C(C)C` [#162, N-{(2R,3R)-3-methoxy-3-[(2S)-1-{(3R,4S,5S)-3-methoxy-5-methyl-4-[methyl(N-{[(2S)-2-methylpiperidin-2-yl]carbonyl}-L-valyl)amino]heptanoyl}pyrrolidin-2-yl]-2-methylpropanoyl}-L-phenylalanine] (H-[X7]V[Dil][Dolaproine]F-OH), for which the IC50 in assay [1] is 27.8 nM; in assay [2], 21.6 nM; in assay [3] it was 31.4 nM.
For `CC[C@H](C)[C@@H]([C@@H](CC(=O)N1CCC[C@H]1[C@H](OC)[C@@H](C)C(=O)N[C@@H](Cc1ccccc1)C(=O)O)OC)N(C)C(=O)[C@@H](NC(=O)[C@@]1(C)CCCCN1)C(C)C` [#163, N-{(2R,3R)-3-methoxy-3-[(2S)-1-{(3R,4S,5S)-3-methoxy-5-methyl-4-[methyl(N-{[(2R)-2-methylpiperidin-2-yl]carbonyl}-L-valyl)amino]heptanoyl}pyrrolidin-2-yl]-2-methylpropanoyl}-L-phenylalanine] (H-[dαMePip]V[Dil][Dolaproine]F-OH), in that order: 99.4 nM, 72.7 nM and at least 100 nM.
As to `CC[C@H](C)[C@@H]([C@@H](CC(=O)N1CCC[C@H]1[C@H](OC)[C@@H](C)C(=O)N[C@@H](Cc1ccccc1)C(=O)OC)OC)N(C)C(=O)[C@@H](NC(=O)[C@@]1(F)CCNC1)C(C)C` [#172, methyl N-{(2R,3R)-3-[(2S)-1-{(3R,4S,5S)-4-[(N-{[(3R)-3-fluoropyrrolidin-3-yl]carbonyl}-L-valyl)(methyl)amino]-3-methoxy-5-methylheptanoyl}pyrrolidin-2-yl]-3-methoxy-2-methylpropanoyl}-L-phenylalaninate], the IC50 in assay [1] worked out at 0.086 nM; in assay [2], 0.144 nM; in assay [3], 0.057 nM.

In general, IC50 refers to the concentration needed to halve the response being measured.
